# Measurements reported in patent publication US9982011B2, “Legumain activated doxorubicin derivative as well as preparation method and application thereof” (priority 2012, dated 2018).
# “Also recorded” adds a separate entry of the source. Counter-ions that a name gives are not always drawn. Starred links: 1 amine or outer side, 2 acyl side, 3 side chain; linkers in the order of their positions; H or OH if unused. Residues, ends and D or L forms follow the SMILES beside them. *: point of attachment. Doxorubicin(3'-N) = COc1cccc2c1C(=O)c1c(O)c3c(c(O)c1C2=O)C[C@@](O)(C(=O)CO)C[C@@H]3O[C@H]1C[C@H](N*)[C@H](O)[C@H](C)O1; Suc = O=C(CCC(=O)[*:2])[*:1]
# Experiments:
# [1] = Metabolic half-life in mice blood
# [2] = target: Cathepsin B (Homo sapiens, UniProt P07858); experiment: In vitro binding to cathepsin absorbed on a 96-well plate (fluorescence of bound drug); conditions: FIG. 1
# Description: The R6 group allows the drug to be able to target cathepsin (Cathepsin B) in the tumor microenvironment and inhibit the activity of cathepsin necessary for tumor growth, development and metastasis. […] The R6 group also allows the drug to have an additional function of targeting tumor, thus the drug has two targeted effects.
# The test method was described as follows. Cathepsin was absorbed on a 96-well plate and blocked with BSA. Succinyl-AANL-DOX (SEQ ID NO: 2), S1 and a mixture of S1 and E-64 (an inhibitor for specific binding of cathepsin) were added to allow them to bind to the cathepsin on the 96-well plate. The unbound drugs were removed and the fluorescence of the bound drug was detected.
# [3] = target: serum albumin (Mus musculus, UniProt P07724); conditions: blood taken 10 minutes after intravenous tail injection
# Description: Bloods were taken after 10 minutes and centrifuged to obtain serum. The proteins in the serum were precipitated by 70% ethanol.
# [4] = Maximum tolerated dose (MTD) / acute toxicity of a single injection in mice; conditions: female, BALB/C, mouse, in vivo
# Description: (§1) Test purpose: to investigate the acute toxicity of the subject new drug formulation via MTD assay by intravenous administration to mice.
# (§2) Test drug: S1 and S2 injections, diluted to the corresponding concentrations with physiological saline when tested.
# (§3) Animal: the first class BALB/C mice, weighing 19-21 g and all mice being female.
# (§4) Method and results: 36 female BALB/C mice weighing 19-21 g were randomly divided into 6 groups according to their body weights, with 6 mice in each group. […] Control tests were performed by injecting 0.2 ml physiological saline or doxorubicin hydrochloride. […] Blood samples were taken on the 3, 5 and 14 days for counting the whole blood cells. Animals were anatomized on day 14 to take the heart, liver, kidney, lung, spleen, and pancreas for HE staining.
# (§5) The MTD for intravenous administration of a test drug is an important reference index for drug toxicity.
# [5] = test system: BALB/C mice; experiment: as above
# Description: as §1, §2, §3, §4, §5
# [6] = test system: 4T1 cells; experiment: Efficacy in 4T1 tumor metastasis (lung) model in BALB/C mice; type: in vivo
# Description: Test purpose: to investigate the anti-tumor efficacy of S1 and S2 in a tumor metastasis treatment model from BALB/C mice.
# Test drug: S1 and S2 injections, and doxorubicin hydrochloride injection, diluted to corresponding concentrations with physiological saline when testing.
# 1. Animal: BALB/C mice of 6-8 weeks old, all female.
# 1) 4T1 cells were purchased from American type culture collection (ATCC) and identified according the specification provided by ATCC. Cells were cultivated in DMEM culture medium containing 10% fetal bovine serum at 37° C. and 5% CO2. The cells were passaged for every three days and cells within the 15th passage were used.
# 2) Production of tumor metastasis. 10^6 […] were subcutaneously injected to the back of the BALB/C mice. Mice were randomly grouped after the tumor grew to about 1.5 cm. The subcutaneous tumor was removed by surgery and drug treatment began. Mice were killed after anesthesia on day 27. The whole lung was taken out and put into Bouin's solution for staining. The number of the tumor metastasized to lung was counted with anatomical microscope.
# (§6) 3) Course of treatment. According to the clinical application of S1 and S2, drugs were intraperitoneally injected. A dose of 10 μmol/kg (<1/10 MTD) was used for the S1 treatment group, 10 μmol/kg (<1/10 MTD) for the S2 treatment group, and 3 μmol/kg (>1/2 MTD) for doxorubicin hydrochloride. The control group was administered with physiological saline. The drugs were administered daily for 8 days.
# [7] = test system: MDA-MB231 cells; experiment: Efficacy in MDA-MB231 tumor model in nude mice; type: in vivo
# Description: Test purpose: to investigate the anti-tumor efficacy of S1 and S2 via mouse tumor treatment model.
# Test drug: S1 and S2 injections, and doxorubicin hydrochloride injection, diluted to corresponding concentrations by physiological saline when testing.
# 1. Animal: nude mice of 6-8 weeks old, all female.
# 1) MDA-MB231 cells were purchased from American type culture collection (ATCC) and identified according the specification provided by ATCC.
# 2) Production of tumor. […] Mice were randomly grouped after the diameter of the tumor reached about 0.3 cm to 0.4 cm. Then treatment began.
# as §6, with “According” for “3) Course of treatment. According”, “30 mg/kg (<1/2” for “10 μmol/kg (<1/10”, “4 mg/kg” for “3 μmol/kg”, “twice weekly” for “daily”, “three weeks.” for “8 days.”
# [8] = 10 mg/kg, single injection, 6 female BALB/C mice
# [9] = lung, day 27, i.p. daily for 8 days, S1, S2 10 μmol/kg, doxorubicin hydrochloride 3 μmol/kg
# serum albumin, sequence (P07724 25-608): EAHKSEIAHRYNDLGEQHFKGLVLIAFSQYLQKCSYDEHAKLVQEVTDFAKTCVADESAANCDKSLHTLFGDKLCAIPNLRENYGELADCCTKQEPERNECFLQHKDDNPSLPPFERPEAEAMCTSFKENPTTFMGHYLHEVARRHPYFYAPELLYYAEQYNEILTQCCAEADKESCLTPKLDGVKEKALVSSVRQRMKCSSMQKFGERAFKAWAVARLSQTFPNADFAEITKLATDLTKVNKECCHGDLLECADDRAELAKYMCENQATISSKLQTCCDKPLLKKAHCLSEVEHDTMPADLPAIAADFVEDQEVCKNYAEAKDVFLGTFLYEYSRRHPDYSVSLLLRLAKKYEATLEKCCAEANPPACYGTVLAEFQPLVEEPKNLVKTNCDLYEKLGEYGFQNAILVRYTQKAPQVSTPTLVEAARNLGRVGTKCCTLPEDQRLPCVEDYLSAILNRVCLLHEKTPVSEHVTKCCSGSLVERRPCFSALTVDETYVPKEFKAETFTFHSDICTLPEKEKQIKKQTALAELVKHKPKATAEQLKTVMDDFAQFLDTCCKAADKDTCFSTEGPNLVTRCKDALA
smiles,measurement,setting,value
COc1cccc2c1C(=O)c1c(O)c3c(c(O)c1C2=O)C[C@@](O)(C(=O)CO)C[C@@H]3O[C@@H]1C[C@H](NC(=O)[C@H](CC(C)C)NC(=O)[C@H](CC(N)=O)NC(=O)[C@H](C)NC(=O)[C@H](C)NC(=O)OC(C)(C)C)[C@H](O)[C@H](C)O1 [BOC-AANL-DOX],Metabolic half-life in the mice blood,[1],0.7 h
"CC(C)C[C@H](NC(=O)[C@H]1O[C@@H]1C(=O)O)C(=O)NCCCCN=C(N)N [Example E-64, E-64, reference compound]",Competitive inhibition of the binding of S1 to cathepsin,[2]; mixture of S1 and E-64,could competitively inhibit the binding of S1; also recorded: binding can be inhibited by cathepsin inhibitor E-64
"COc1cccc2c1C(=O)c1c(O)c3c(c(O)c1C2=O)C[C@@](O)(C(=O)CO)C[C@@H]3O[C@H]1C[C@H](NC(=O)[C@H](CC(C)C)NC(=O)[C@H](CC(N)=O)NC(=O)[C@H](C)NC(=O)[C@H](C)NC(=O)CCC(=O)O)[C@H](O)[C@H](C)O1 [Succinyl-AANL-DOX, reference compound] (Suc-AANL-{Doxorubicin(3'-N)})",Metabolic half-life in the mice blood,[1],37 h
same,Binding to serum albumin / plasma protein in blood,[3],did not bind to serum albumin in the blood plasma
same,Binding to cathepsin,"[2]; cathepsin absorbed on 96-well plate, blocked with BSA",did not bind to absorbed cathepsin
"COc1cccc2c1C(=O)c1c(O)c3c(c(O)c1C2=O)C[C@@](O)(C(=O)CO)C[C@@H]3O[C@H]1C[C@H](N)[C@H](O)[C@H](C)O1 [doxorubicin hydrochloride, reference compound]",MTD at 17 days,[4],4 to 8 µmol/kg
same,Mortality rate (%),[5]; [8],100%
same,Number of dead animal,[5]; [8],6
same,MDA-MB231,"[5]; Table 4, toxicity by the method of Test Example 1",7 mg/kg
same,Inhibitory rate on metastasis,[6]; [9],31.4%
same,Number of metastasized tumor,[6]; [9],98 ± 18
same,Metastasis-inhibitory rate,[6]; same method as Test Example 3,31.4%
same,"Inhibitory rate of tumor, 20 days","[7]; 20 days, i.p. twice weekly for three weeks, S1, S2 30 mg/kg, doxorubicin hydrochloride 4 mg/kg",7.4%
same,"Size of tumor (mm^3), 20 days","[7]; 20 days, i.p. twice weekly for three weeks, S1, S2 30 mg/kg, doxorubicin hydrochloride 4 mg/kg, nude mice",358.7 ± 39.7 mm^3
same,"Inhibitory rate of tumor, 38 days","[7]; 38 days, i.p. twice weekly for three weeks, S1, S2 30 mg/kg, doxorubicin hydrochloride 4 mg/kg",29.1%
same,"Size of tumor (mm^3), 38 days","[7]; 38 days, i.p. twice weekly for three weeks, S1, S2 30 mg/kg, doxorubicin hydrochloride 4 mg/kg, nude mice",881.2 ± 86.5 mm^3
same,Tumor-inhibitory rate (day 38),"[7]; day 38, same method as Test Example 2",29.1%
